Test results taken from ChEMBL document CHEMBL1201862, “PubChem BioAssay data set” (2004).
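Five compound concentrations were applied to cells in 96-well plates for 48 hours; endpoints were derived by simple linear interpolation of the resulting dose-response curve. GI50 marks 50% less growth.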 Active and inactive are the calls of the source. Cut-off read from the data, not from the text of the source: active = GI50 up to about 1.1 µM and inactive = higher.

Tests used:
Assay in all cases: NCI anticancer screen, dose series, 48 h
TK-10 = system: TK-10
OVCAR-3 = system: OVCAR-3
UACC-257 = system: UACC-257
HOP-62 = system: HOP-62
SF-539 = system: SF-539
UACC-62 = system: UACC-62
IGROV-1 = system: IGROV-1
KM12 = system: KM12
MDA-MB-231 = system: MDA-MB-231
U-251 = system: U-251
HCT-116 = system: HCT-116
SF-268 = system: SF-268
SF-295 = system: SF-295
Hs-578T = system: Hs-578T

CC1(CO)OC(n2cnc3cncnc32)CC1O (centres undefined)
GI50 (TK-10): > 100 µM (inactive)
GI50 (OVCAR-3): > 100 µM (inactive)
GI50 (UACC-257): > 100 µM (inactive)
GI50 (HOP-62): > 100 µM (inactive)
GI50 (SF-539): > 100 µM (inactive)
GI50 (UACC-62): > 100 µM (inactive)
GI50 (IGROV-1): > 100 µM (inactive)
GI50 (KM12): > 100 µM (inactive)
GI50 (MDA-MB-231): > 100 µM (inactive)
GI50 (U-251): > 100 µM (inactive)
GI50 (HCT-116): > 100 µM (inactive)
GI50 (SF-268): > 100 µM (inactive)
GI50 (SF-295): > 100 µM (inactive)

CC(=O)Nc1cc2c3c(c1)CCCN3CCC2
GI50 (TK-10): > 100 µM (inactive)
GI50 (OVCAR-3): > 100 µM (inactive)
GI50 (UACC-257): > 100 µM (inactive)
GI50 (SF-539): > 100 µM (inactive)
GI50 (UACC-62): > 100 µM (inactive)
GI50 (Hs-578T): > 100 µM (inactive)
GI50 (IGROV-1): > 100 µM (inactive)
GI50 (KM12): > 100 µM (inactive)
GI50 (MDA-MB-231): > 100 µM (inactive)
GI50 (U-251): > 100 µM (inactive)
GI50 (HCT-116): > 100 µM (inactive)
GI50 (SF-295): > 100 µM (inactive)

COc1ccc2c(c1)c(=Cc1ccc(N(C)C)cc1)c1cc(-c3ccccc3)[n+](C)n12
GI50 (TK-10): 0.461 µM (active)
GI50 (OVCAR-3): 0.23 µM (active)
GI50 (UACC-257): 0.359 µM (active)
GI50 (HOP-62): 1.36 µM (inactive)
GI50 (UACC-62): 0.698 µM (active)
GI50 (Hs-578T): 0.124 µM (active)
GI50 (IGROV-1): 0.144 µM (active)
GI50 (KM12): 0.448 µM (active)
GI50 (MDA-MB-231): 0.274 µM (active)
GI50 (U-251): 0.301 µM (active)
GI50 (HCT-116): 0.314 µM (active)
GI50 (SF-268): 0.226 µM (active)
GI50 (SF-295): 0.264 µM (active)

S=C1C=C(c2ccccc2)Sc2ccccc2N1
GI50 (TK-10): > 100 µM (inactive)
GI50 (OVCAR-3): > 100 µM (inactive)
GI50 (UACC-257): 48.6 µM (inactive)
GI50 (HOP-62): 41.4 µM (inactive)
GI50 (UACC-62): > 100 µM (inactive)
GI50 (Hs-578T): 19.5 µM (inactive)
GI50 (IGROV-1): > 100 µM (inactive)
GI50 (KM12): > 100 µM (inactive)
GI50 (MDA-MB-231): > 100 µM (inactive)
GI50 (U-251): > 100 µM (inactive)
GI50 (HCT-116): 79.8 µM (inactive)
GI50 (SF-268): > 100 µM (inactive)
GI50 (SF-295): > 100 µM (inactive)

Cc1ccc(NC(=O)c2cc3ccccc3c(/N=N/c3cc(S(=O)(=O)O)ccc3O)c2O)c(C)c1
GI50 (TK-10): 25.1 µM (inactive)
GI50 (OVCAR-3): 3.26 µM (inactive)
GI50 (UACC-257): 23.8 µM (inactive)
GI50 (HOP-62): 13.1 µM (inactive)
GI50 (UACC-62): 15.5 µM (inactive)
GI50 (Hs-578T): 31.6 µM (inactive)
GI50 (IGROV-1): 16.3 µM (inactive)
GI50 (KM12): 16.1 µM (inactive)
GI50 (MDA-MB-231): 26.1 µM (inactive)
GI50 (U-251): 4.33 µM (inactive)
GI50 (HCT-116): 29.9 µM (inactive)
GI50 (SF-268): 18.6 µM (inactive)
GI50 (SF-295): 10 µM (inactive)
